Results as given in patent US11612572B2, “Treatment of schizophrenia using beta-caryophyllene and CB2 receptor agonists” (priority 2012, dated 2023).
Entries after “also recorded” stand apart in the source; their conditions may differ.

Key:
[1] = system: mouse model of schizophrenia; assay: Behavior in the Phenotyper cage; type: in vivo, mice; conditions: Study II
[2] = Body weight of mice in the neonatal PCP model
[3] = orally-administered; cited from earlier work
[4] = system: mouse model of schizophrenia; assay: Open-field test (ambulation/crossing, rearing, grooming)
[5] = system: mouse model of schizophrenia; assay: Elevated Plus Maze test; conditions: for time spent in the distal end of the opened arm (anxiety): Study I, age 13 weeks
[6] = system: mouse model of schizophrenia; assay: Prepulse inhibition (PPI) of the startle reflex; conditions: for % inhibition (ability to adjust to sound stimulus, PPI): Study I, age 8 weeks
cannabinoid receptor CB2 = cannabinoid receptor CB2 (Homo sapiens, UniProt P34972); conditions: cited from earlier work
cannabinoid receptor CB2, sequence (P34972 whole entry): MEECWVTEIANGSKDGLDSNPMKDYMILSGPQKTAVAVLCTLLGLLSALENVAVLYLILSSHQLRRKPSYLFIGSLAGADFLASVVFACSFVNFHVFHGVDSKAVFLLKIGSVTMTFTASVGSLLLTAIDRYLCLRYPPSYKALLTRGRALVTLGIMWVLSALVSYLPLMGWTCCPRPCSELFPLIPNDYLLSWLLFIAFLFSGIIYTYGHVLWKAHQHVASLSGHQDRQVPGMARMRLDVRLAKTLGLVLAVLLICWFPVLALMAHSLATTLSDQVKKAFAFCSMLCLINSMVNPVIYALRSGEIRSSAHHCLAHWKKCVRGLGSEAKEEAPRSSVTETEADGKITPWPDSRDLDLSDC

[7] = in vivo; cited from earlier work
[8] = Study III: male mice, PND 17, PCP 5 mg/kg, 1 h later BCP 10 mg/kg or BCP+AM630 10 mg/kg each, DMSO-based vehicle
[9] = Study II, PND 68, saline-treated mice

With beta-caryophyllene [BCP] the “time spent in the food zone” value ([1]; PND 91) was “did not affect the time spend in the food zone”, the “time spent at the drinking zone” value ([1]; PND 91, compared with PCP-treated group) was “appeared to reduce the time spend at the drinking zone” and the “frequency of entries to the wheel” value ([1]; PND 91, females and males) was “reversed the effects of PCP on the frequency of entries to the wheel; also recorded: reversed the effects of PCP on frequency of entries to the wheel”. For the same substance, the “time spent in the Hidden Zone” value ([1]; PND 91, females and males) was “reversed the effects of PCP on the time spend in the Hidden Zone; also recorded: reversed the effects of PCP on the time spent in the hidden zone”, the “frequency of entries to the hidden zone” value ([1]; PND 91, males (FIG. 20D)) was “reversed the effect of PCP in males” and the “frequency of entries to the Wheel Zone” value ([1]; PND 105) was “appeared to reduce the effect of PCP on the frequency of entries to the Wheel Zone”. The “frequency of entries to the hidden zone” value ([1]; PND 105) was “reversed the effects of PCP on the frequency of entries to the hidden zone; also recorded: reversed the effect of PCP on frequency of entries to hidden zone”, the “time spent at the hidden zone” value ([1]; PND 105) was “reversed the effects of PCP on the time spend at the hidden zone; also recorded: reversed the effect of PCP on time spent at the hidden zone” and the “time spent in the wheel” value ([1]; PND 105) was “showed a trend to reverse the effect of PCP on the time spend in the wheel”. For the same substance, the body weight ([2]; Study I, BCP 10 mg/kg in DMSO-based vehicle (FIG. 12C)) was “completely reversed the effect of PCP on body weight”, the body weight ([2]; Study I, ethanol-based vehicle, PND 7 / first week of life (FIG. 1B)) was “reversed the reduction in body weight during the first week of life” and the body weight ([2]; Study I: PCP 5 mg/kg PND 3-16, BCP 10 mg/kg 1 h after PCP, ethanol-based vehicle, each day of injection PND 3-17 (FIG. 1A)) was “did not restore the weight completely”. For the same substance, the body weight ([2]; Study I, PND 17 (FIG. 2C)) was “no significant difference between groups treated with PCP with or without BCP”, the body weight ([2]; Study I, PND 17, males (FIG. 3A)) was “appeared to be more prominent” and the body weight ([2]; Study I, PND 35-37, females (FIG. 4D)) was “significantly reversed the effect of PCP on female body weight”. For the same substance, the body weight ([2]; Study I, PND 35-37, males (FIG. 4A)) was “no significant difference in male body weight between the groups”, the body weight ([2]; Study II: BCP 5 mg/kg twice a week on PND 43-61 (FIG. 14A)) was “did not affect body weight” and the body weight ([2]; Study II, PND 104) was “did not increase body weight in females and males, rather reduced body weight of PCP+BCP treated group”. For the same substance, the “oral absorption / systemic availability” value [3] was “absorbed by the digestive tract and becomes systemically available”, the ambulation ([4]; Study I, DMSO-based carrier, PND 17, males (FIG. 12A)) was “completely reversed the effects of PCP” and the rearing behavior ([4]; Study I, DMSO-based carrier, PND 17, males (FIG. 12B)) was “completely reversed the effects of PCP”. For the same substance, the rearing ([4]; Study I, ethanol-based vehicle, PND 17 (FIG. 2B)) was “reversed the effects of PCP on rearing and exploration”, the “ambulation (exploration)” value ([4]; Study I: PCP 5 mg/kg, BCP 10 mg/kg, ethanol-based vehicle, PND 17 (FIG. 2A)) was “reversed the effects of PCP on rearing and exploration” and the ambulation ([4]; Study I, PND 17, females) was “reversed a proportion of the effects of PCP on ambulation and rearing behavior of female mice”. The rearing behavior ([4]; Study I, PND 17, females) was “reversed a proportion of the effects of PCP on ambulation and rearing behavior of female mice”, the locomotor activity ([4]; Study I, PND 17, males) was “appeared to be less sensitive to the treatment of PCP or PCP+BCP” and the “rearing and exploration behaviors” value ([4]; Study I, PND 35-37, females (FIGS. 4E, 4F)) was “no differences in rearing and exploration behaviors were seen between the different groups”. For the same substance, the rearing behavior ([4]; Study I, PND 35-37, males (FIG. 4B)) was “significantly reduced rearing behavior as compared to vehicle and PCP-treated groups”, the locomotor activity ([4]; Study I, PND 35-37, males (FIG. 4C)) was “reduced locomotor activity; also recorded: significantly reversed the effect of PCP in males” and the exploration ([4]; Study II: BCP in adolescence compared with saline-treated mice, PND 63) was “significantly inhibited the exploration of mice compared with saline-treated mice”. The ambulation ([4]; Study II: neonatal PCP, BCP 5 mg/kg PND 43-61, PND 63, male and female) was “significantly reversed the effect of PCP on ambulation in male and female mice”, the rearing ([4]; Study II, PND 63, females and males (FIGS. 15A-15C)) was “reversed the effect of PCP on rearing in both females and males” and the exploratory behavior ([4]; Study II, PND 104, females (last BCP treatment PND 61)) was “a relapse in exploratory behavior was evident”. For the same substance, the “self-grooming (total, without stimuli)” value ([4]; Study II, PND 104, females or males) was “did not reverse the effect of PCP on self-grooming; also recorded: did not reverse the effect of PCT on grooming”, the exploration ([4]; Study II, PND 104, males) was “improved exploration and rearing behaviors of male PCP treated mice” and the rearing behavior ([4]; Study II, PND 104, males) was “still significantly higher than that of PCP-treated mice with no BCP treatment; also recorded: improved exploration and rearing behaviors of male PCP treated mice”. The ambulation [4, 8] was “reversed the effects of PCP on rearing and exploration”, the rearing [4, 8] was “reversed the effects of PCP on rearing and exploration” and the “time spent in the distal end of the opened arm (anxiety)” value ([5]; females (FIGS. 6E, 6G)) was “reversed this effect; also recorded: reversed both effects”. For the same substance, the “time spent in the distal end of the opened arm (anxiety)” value ([5]; males (FIGS. 6F, 6H)) was “reversed this effect; also recorded: reversed both effects”, the “behavior in the Plus Maze test” value ([5]; Study II, PND 64 (FIGS. 19A-19F)) was “did not reverse the effects of PCP on behavior in the Plus Maze test” and the “% inhibition (ability to adjust to sound stimulus, PPI)” value ([6]; females (FIG. 5D)) was “No significant difference”. For the same substance, the “% inhibition (ability to adjust to sound stimulus, PPI)” value ([6]; males (FIG. 5B)) was “reversed this effect; also recorded: significantly reversed the effect of PCP on the sensorimotor-gate in males”, the “response to startle at the end of the PPI test” value ([6]; Study II, PND 68 (FIGS. 18A-18C)) was “did not affect the response to startle at the end of the PPI test” and the “pre-pulse inhibition (% PPI)” value ([6]; Study II, PND 68, PCP-treated mice (FIG. 16A)) was “significantly reversed the effect of PCP on pre-pulse inhibition; also recorded: reversed the effect of PCP on PPI”. The “response to pre-pulse tones” value ([6]; Study II, PND 68, PCP-treated mice (FIGS. 17A-17C)) was “significantly reversed the effect of PCP on response to pre-pulse tones; also recorded: reversed the effect of PCP on the response to tone”, the startle response ([6]; Study II, PND 68, females (FIG. 16B)) was “significantly reversed the effect of PCP on startle response in females” and the “response to the startle stimuli” value ([6]; Study II, PND 68, males (FIG. 16C)) was “no difference in the response to the startle stimuli between groups”. For the same substance, the “pre-pulse inhibition (% PPI)” value [6, 9] was “no substantial effect on saline-treated mice”, the “response to pre-pulse tones” value [6, 9] was “no effect on saline-treated mice” and the “response to the startle stimuli (120 dB)” value ([6]; Study II, PND 106 (FIGS. 25A-25C)) was “no difference in the response to the startle stimuli (120 dB) between groups”. The response to tones ([6]; Study II, PND 106 (FIGS. 25D-25F)) was “reversed the effect of PCP on the response to tones”, the “% pre-pulse inhibition (PPI)” value ([6]; Study II, PND 106 (FIGS. 25G-25I)) was “reversed the effect of PCP on the % pre-pulse inhibition; also recorded: reversed the effect of PCP on attention at PND106” and the “activity at CB2 receptor” value (cannabinoid receptor CB2) was “CB2-receptor agonist”. For the same substance, the toxicity [7] was “apparent substantial non-toxicity”.
